{"source": "patent US20190380957A1", "about": "“Protein Hydrogels For Treatment Of Neovascular Disease” (New Jersey Institute of Technology, priority 2018, published 2019)", "key": {"[1]": {"system": "human umbilical vein endothelial cells (HUVECs)", "experiment": "Tube formation assay", "assay_type": "cell-based", "conditions": "positive control, 1.8 mM suramin in media", "description": "To assay the anti-angiogenic effect of the self-assembled peptide on endothelial cells, tube formation assays were performed for a range of peptide concentrations. This assay captures the propensity of human ECs or HUVECs to form capillary-like tubules. The process is sensitive to the presence of anti-angiogenic compounds. HUVECs were seeded along with varying concentrations of SL-Kr5 solution on a basement membrane extract matrix to stimulate the formation of capillary tubules. The effects of the peptide on the HUVECs were characterized by measuring the extent of tube formation in terms of total length of tubules formed, number of segments, number of branches, number of junctions, number of nodes, and […] (FIGS. 8A-8F, FIGS. 9A-9D). […]\nTube Formation Assay: HUVECs (Lonza) were cultured in T75 flasks using an Endothelial Cell Growth Medium BulletKit (Lonza). […] The negative control was supplemented with 298 mM sucrose to match the corresponding highest quantity added to the test conditions, and the positive control contained 1.8 mM suramin. The 96-well plate was then incubated at 37° C. for 4 to 6 hours before imaging on a Nikon Instruments Eclipse Ti-S inverted fluorescence microscope. Tube length was quantified using NIH ImageJ software."}, "[2]": {"target": "GRP78 (glucose-regulated protein 78) (Homo sapiens, UniProt P11021)", "sequence (P11021 19-654, species assumed)": "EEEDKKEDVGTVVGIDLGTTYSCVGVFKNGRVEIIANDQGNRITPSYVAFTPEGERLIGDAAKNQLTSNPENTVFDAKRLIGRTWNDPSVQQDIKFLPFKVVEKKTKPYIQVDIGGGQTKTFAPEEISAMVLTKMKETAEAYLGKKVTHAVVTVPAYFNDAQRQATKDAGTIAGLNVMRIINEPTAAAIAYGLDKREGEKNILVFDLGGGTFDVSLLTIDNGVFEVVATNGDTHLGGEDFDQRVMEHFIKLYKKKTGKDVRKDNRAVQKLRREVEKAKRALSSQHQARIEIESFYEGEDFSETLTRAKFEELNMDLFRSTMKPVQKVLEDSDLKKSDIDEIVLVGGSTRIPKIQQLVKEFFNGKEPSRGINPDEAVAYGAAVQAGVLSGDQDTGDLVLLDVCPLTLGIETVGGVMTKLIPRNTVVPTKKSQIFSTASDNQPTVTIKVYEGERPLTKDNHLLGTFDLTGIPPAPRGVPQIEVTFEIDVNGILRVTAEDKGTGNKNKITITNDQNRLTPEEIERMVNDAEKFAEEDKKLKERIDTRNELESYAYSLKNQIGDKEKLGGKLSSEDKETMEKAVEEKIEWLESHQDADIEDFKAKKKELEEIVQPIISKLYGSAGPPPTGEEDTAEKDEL", "conditions": "previously shown; cited from earlier work"}, "endothelial cells": {"system": "endothelial cells", "conditions": "previously shown; cited from earlier work"}, "NIH 3T3 fibroblasts": {"system": "NIH 3T3 fibroblasts", "experiment": "In vitro cytocompatibility (LIVE/DEAD viability/cytotoxicity kit)", "assay_type": "cell-based", "conditions": "for cytocompatibility compared to the media+sucrose control: day 3", "description": "(§1) Cytocompatibility was determined by fibroblast cultures treated with increasing concentrations of the peptide in culture media.\n(§2) In Vitro Cytocompatibility: NIH 3T3 fibroblasts were cultured in media (Dulbecco's Modified Eagle Medium supplemented with 10% fetal bovine serum and 1% 100× penicillin streptomycin) in T75 flasks. After the cells reached confluency, they were seeded in a 96-well plate at 2,500 cells/well. Three target conditions (800 μM, 80 μM, and […]; n=6) and a control (media with sucrose; n=6) were tested. For target conditions, the peptide was supplemented in the media, and for the media control, 298 mM sucrose (formulation carrier) was added. Media was changed daily and cytocompatibility was assessed on day 3 using a LIVE/DEAD® viability/cytotoxicity kit. Images were taken on a Nikon Instruments Eclipse Ti-S inverted fluorescence microscope, and cell viability was quantified using NIH ImageJ, a known image analysis and processing software program."}, "[3]": {"experiment": "In vitro cytocompatibility (LIVE/DEAD viability/cytotoxicity kit)", "assay_type": "cell-based", "conditions": "mouse, NIH 3T3 fibroblasts; 800 μM SL-Kr5 in media, day 3; control 85-90%, p<0.05; read-out: viability of cells", "description": "as §1, §2"}, "Female Wistar rats": {"system": "Female Wistar rats", "experiment": "In vivo subcutaneous implantation, histology", "parameters": "species or system rat", "conditions": "200 μL SC implant"}, "[4]": {"conditions": "cited from earlier work"}}}
{"compound": "Cc1ccc(C(=O)Nc2ccc(S(=O)(=O)O)c3cc(S(=O)(=O)O)cc(S(=O)(=O)O)c23)cc1NC(=O)c1cccc(NC(=O)Nc2cccc(C(=O)Nc3cc(C(=O)Nc4ccc(S(=O)(=O)O)c5cc(S(=O)(=O)O)cc(S(=O)(=O)O)c45)ccc3C)c2)c1", "note": "[suramin]", "values": [{"measurement": "EC tube formation", "setting": "[1]", "value": "inhibited"}]}
{"compound": "PRKLYDY (Kr5)", "values": [{"measurement": "attachment to GRP78", "setting": "[2]", "value": "can attach"}, {"measurement": "apoptosis of endothelial cells", "setting": "endothelial cells", "value": "induce apoptosis"}]}
{"compound": "Ac-KSLSLSLSLSLSLKGPRKLYDY-NH2 [SL-Kr5, K-(SL)6-K-G-PRKLYDY]", "values": [{"measurement": "cytocompatibility compared to the media+sucrose control", "setting": "NIH 3T3 fibroblasts; 8 μM SL-Kr5 in media", "value": "little to no difference"}, {"measurement": "cytocompatibility compared to the media+sucrose control", "setting": "NIH 3T3 fibroblasts; 80 μM SL-Kr5 in media", "value": "little to no difference"}, {"measurement": "non-specific toxicity in stromal cells", "setting": "NIH 3T3 fibroblasts; fibroblast cultures, increasing peptide concentrations", "value": "did not induce non-specific toxicity"}, {"measurement": "cellular proliferation versus controls", "setting": "NIH 3T3 fibroblasts; over a range of concentrations", "value": "comparable cellular proliferation to controls"}, {"measurement": "viability at 72 h, 800 µM", "setting": "[3]", "value": 55, "unit": "%"}, {"measurement": "fibrous capsule", "setting": "Female Wistar rats", "value": "no fibrous capsule apparent"}]}
{"compound": "K2(SL)6K2", "values": [{"measurement": "basal level of angiogenesis", "setting": "[4]; no VEGF mimic", "value": "strong basal level of angiogenesis"}, {"measurement": "in vivo biodegradation time", "setting": "[4]; slow biodegradation", "value": 6, "unit": "weeks"}]}
